Results on 15 molecules are retold here after US20230167118A1, “DEGRADATION OF BRUTON'S TYROSINE KINASE (BTK) BY CONJUGATION OF BTK INIDBITORS WITH E3 LIGASE LIGAND AND METHODS OF USE” (BEIGENE, LTD., priority 2020, published 2023).

One assay has as its target T1, BTK (Homo sapiens, UniProt Q06187).
T1 construct: High control=Cell group with added DMSO and without compound, indicating microplate readings without BTK degradation; endogenous in cells; host or cells: TMD-8 cells
Put plainly: Cell Degradation: BTK degradation in TMD-8 cells, HTRF assay. The following applies: 6 h treatment, IC50 (DC50) of BTK degradation. In kind it is cell-based. In outline:
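BTK levels read by HTRF (665 vs 620 nm) in lysates of TMD-8 cells after 6 h compound exposure (eight doses, 6-fold steps, 0.2% DMSO). Percent degradation relative to controls; four-parameter curve fitting gave DC50, with Dmax the top degradation.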
On the technique in general: Time-resolved FRET reads energy transfer from a long-lived donor to a nearby acceptor.

The subject of the next assay is HEK-293 cells. In words: HEK-293 Cytotoxicity Assay (CellTiter-Glo). In kind it is cell-based. The settings on record: Homo sapiens, HEK293, 72 h incubation, CellTiter-Glo luminescence. In outline:
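Four-parameter fit of % inhibition gives IC50, from CellTiter-Glo luminescent viability read-out. Cells exposed for 72 h to an 8-point, 4-fold series at 0.2% DMSO.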
In general terms: ATP-based viability assays read luminescence as a measure of living cells.

T1 sequence (Q06187 whole entry): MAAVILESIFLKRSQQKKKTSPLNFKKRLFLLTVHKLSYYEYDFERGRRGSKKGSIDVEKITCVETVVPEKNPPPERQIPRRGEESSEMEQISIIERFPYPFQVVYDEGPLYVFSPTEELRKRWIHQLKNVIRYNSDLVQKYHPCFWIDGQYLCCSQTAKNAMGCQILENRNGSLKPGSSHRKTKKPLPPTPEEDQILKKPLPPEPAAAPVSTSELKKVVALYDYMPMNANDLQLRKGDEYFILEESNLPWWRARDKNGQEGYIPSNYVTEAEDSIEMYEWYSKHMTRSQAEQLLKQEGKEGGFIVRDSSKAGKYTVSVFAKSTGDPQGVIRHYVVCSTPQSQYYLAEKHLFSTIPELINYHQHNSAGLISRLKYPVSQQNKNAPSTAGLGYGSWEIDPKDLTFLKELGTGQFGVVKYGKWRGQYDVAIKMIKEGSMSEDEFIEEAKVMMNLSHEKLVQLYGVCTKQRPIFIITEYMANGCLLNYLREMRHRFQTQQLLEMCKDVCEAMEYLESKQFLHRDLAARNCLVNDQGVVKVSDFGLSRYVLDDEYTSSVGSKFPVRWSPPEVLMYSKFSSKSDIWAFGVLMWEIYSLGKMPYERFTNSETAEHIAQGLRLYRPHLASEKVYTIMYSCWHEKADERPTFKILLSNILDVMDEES

`Cc1nn(C2CCN(CC3CCN(c4ccc(N5CCC(=O)NC5=O)cc4)CC3)CC2)c(C)c1-c1cc2c(-c3ccc([C@@H](C)NC(=O)c4cn(C(C)(C)C)nn4)c(CO)c3)ncnc2[nH]1` [Example 122, (R)-1-(tert-butyl)-N-(1-(4-(6-(1-(1-((1-(4-(2,4-dioxotetrahydropyrimidin-1(2H)-yl)phenyl)piperidin-4-yl)methyl)piperidin-4-yl)-3,5-dimethyl-1H-pyrazol-4-yl)-7H-pyrrolo[2,3-d]pyrimidin-4-yl)-2-(hydroxymethyl)phenyl)ethyl)-1H-1,2,3-triazole-4-carboxamide]: the DC50 (usually the concentration giving 50% degradation) at BTK is 0.29 nM. In addition, the IC50 (commonly the concentration that inhibits the measured activity by half) in the assay with HEK-293 cells was found to be 4.11 µM.
Taken in the same sequence, the figures for `Cc1cc(-c2ncnc3[nH]c(-c4ccc(N5CCN(CC6CCN(c7ccc(N8CCC(=O)NC8=O)c(C)c7)CC6)CC5)cn4)cc23)ccc1[C@@H](C)NC(=O)c1noc(C2(CO)CC2)n1` [Example 123, (R)-N-(1-(4-(6-(5-(4-((1-(4-(2,4-dioxotetrahydropyrimidin-1(2H)-yl)-3-methylphenyl)piperidin-4-yl)methyl)piperazin-1-yl)pyridin-2-yl)-7H-pyrrolo[2,3-d]pyrimidin-4-yl)-2-methylphenyl)ethyl)-5-(1-(hydroxymethyl)cyclopropyl)-1,2,4-oxadiazole-3-carboxamide] were 0.16 nM and > 10 µM.
Taken in the same sequence, the figures for `Cc1cc(-c2ncnc3[nH]c(-c4ccc(N5CCN(CC6CCN(c7ccc(N8CCC(=O)NC8=O)cc7)CC6)CC5)cn4)cc23)ccc1[C@@H](C)NC(=O)c1noc(C2(C)CC2)n1` [Example 124, (R)-N-(1-(4-(6-(5-(4-((1-(4-(2,4-dioxotetrahydropyrimidin-1(2H)-yl)phenyl)piperidin-4-yl)methyl)piperazin-1-yl)pyridin-2-yl)-7H-pyrrolo[2,3-d]pyrimidin-4-yl)-2-methylphenyl)ethyl)-5-(1-methylcyclopropyl)-1,2,4-oxadiazole-3-carboxamide] were 1.01 nM and > 10 µM.
In the case of `Cc1cc(-c2ncnc3[nH]c(-c4ccc(N5CCN(CC6CCN(c7ccc(N8CCC(=O)NC8=O)c(C)c7)CC6)CC5)cn4)cc23)ccc1[C@@H](C)NC(=O)c1noc(C2(C)CC2)n1` [Example 125, (R)-N-(1-(4-(6-(5-(4-((1-(4-(2,4-dioxotetrahydropyrimidin-1(2H)-yl)-3-methylphenyl)piperidin-4-yl)methyl)piperazin-1-yl)pyridin-2-yl)-7H-pyrrolo[2,3-d]pyrimidin-4-yl)-2-methylphenyl)ethyl)-5-(1-methylcyclopropyl)-1,2,4-oxadiazole-3-carboxamide], the half-maximal degradation concentration (DC50) at BTK came out at 0.74 nM. For the same molecule, the concentration for half-maximal inhibition (IC50) in the assay on HEK-293 cells is > 10 µM.
As to `Cc1cc(-c2ncnc3[nH]c(-c4ccc(N5CCN(CC6CCN(c7ccc(N8CCC(=O)NC8=O)c(C)c7)CC6)CC5)nc4)cc23)ccc1[C@@H](C)NC(=O)c1noc(C2(C)CC2)n1` [Example 126, (R)-N-(1-(4-(6-(6-(4-((1-(4-(2,4-dioxotetrahydropyrimidin-1(2H)-yl)-3-methylphenyl)piperidin-4-yl)methyl)piperazin-1-yl)pyridin-3-yl)-7H-pyrrolo[2,3-d]pyrimidin-4-yl)-2-methylphenyl)ethyl)-5-(1-methylcyclopropyl)-1,2,4-oxadiazole-3-carboxamide], at BTK, the DC50 came to 0.41 nM. Besides, the IC50 with HEK-293 cells is > 10 µM.
Molecule `Cc1c([C@@H](C)NC(=O)c2noc(C(C)(C)C)n2)ccc(-c2ncnc3[nH]c(-c4ccc(N5CCN(CC6CCN(c7ccc(N8CCC(=O)NC8=O)cc7)CC6)CC5)cn4)cc23)c1F` [Example 127, (R)-5-(tert-butyl)-N-(1-(4-(6-(5-(4-((1-(4-(2,4-dioxotetrahydropyrimidin-1(2H)-yl)phenyl)piperidin-4-yl)methyl)piperazin-1-yl)pyridin-2-yl)-7H-pyrrolo[2,3-d]pyrimidin-4-yl)-3-fluoro-2-methylphenyl)ethyl)-1,2,4-oxadiazole-3-carboxamide] displayed a DC50 on BTK of 0.42 nM. Further, in the assay with HEK-293 cells, the IC50 was > 10 µM.
With `Cc1cc(N2CCC(CN3CCN(c4ccc(-c5cc6c(-c7ccc([C@@H](C)NC(=O)c8noc(C(C)(C)C)n8)c(C)c7F)ncnc6[nH]5)nc4)CC3)CC2)ccc1N1CCC(=O)NC1=O` [Example 128, (R)-5-(tert-butyl)-N-(1-(4-(6-(5-(4-((1-(4-(2,4-dioxotetrahydropyrimidin-1(2H)-yl)-3-methylphenyl)piperidin-4-yl)methyl)piperazin-1-yl)pyridin-2-yl)-7H-pyrrolo[2,3-d]pyrimidin-4-yl)-3-fluoro-2-methylphenyl)ethyl)-1,2,4-oxadiazole-3-carboxamide], at BTK, the DC50 amounted to 0.47 nM. Besides, in the assay on HEK-293 cells, the IC50 was > 10 µM.
Consider `Cc1cc(-c2ncnc3[nH]c(-c4ccc(N5CCN(CC6CCN(c7ccc(N8CCC(=O)NC8=O)c(C)c7)CC6)CC5)cn4)cc23)ccc1[C@@H](C)NC(=O)c1noc(C(C)(C)C)n1` [Example 129, (R)-5-(tert-butyl)-N-(1-(4-(6-(5-(4-((1-(4-(2,4-dioxotetrahydropyrimidin-1(2H)-yl)-3-methylphenyl)piperidin-4-yl)methyl)piperazin-1-yl)pyridin-2-yl)-7H-pyrrolo[2,3-d]pyrimidin-4-yl)-2-methylphenyl)ethyl)-1,2,4-oxadiazole-3-carboxamide], for which it took 0.33 nM to reach half-maximal degradation on BTK (DC50). Further, the 50% inhibitory concentration (IC50) with HEK-293 cells was > 10 µM.
The corresponding values for `Cc1cc(-c2ncnc3[nH]c(-c4ccc(N5CCN(CC6CCN(c7ccc(N8CCC(=O)NC8=O)c(C)c7)CC6)CC5)cn4)cc23)c(F)cc1[C@@H](C)NC(=O)c1noc(C(C)(C)C)n1` [Example 130, (R)-5-(tert-butyl)-N-(1-(4-(6-(5-(4-((1-(4-(2,4-dioxotetrahydropyrimidin-1(2H)-yl)-3-methylphenyl)piperidin-4-yl)methyl)piperazin-1-yl)pyridin-2-yl)-7H-pyrrolo[2,3-d]pyrimidin-4-yl)-5-fluoro-2-methylphenyl)ethyl)-1,2,4-oxadiazole-3-carboxamide] are 0.79 nM and > 10 µM.
`Cc1cc(-c2ncnc3[nH]c(-c4ccc(N5CCN(CC6CCN(c7ccc(N8CCC(=O)NC8=O)cc7)CC6)CC5)nc4)cc23)c(F)cc1[C@@H](C)NC(=O)c1noc(C(C)(C)C)n1` [Example 131, (R)-5-(tert-butyl)-N-(1-(4-(6-(6-(4-((1-(4-(2,4-dioxotetrahydropyrimidin-1(2H)-yl)phenyl)piperidin-4-yl)methyl)piperazin-1-yl)pyridin-3-yl)-7H-pyrrolo[2,3-d]pyrimidin-4-yl)-5-fluoro-2-methylphenyl)ethyl)-1,2,4-oxadiazole-3-carboxamide]: it took 0.59 nM to reach half-maximal degradation at BTK (DC50). In addition, the IC50 in the assay with HEK-293 cells was > 10 µM.
Molecule `Cc1cc(-c2ncnc3[nH]c(-c4ccc(N5CCN(CC6CCN(c7ccc(N8CCC(=O)NC8=O)c(C)c7)CC6)CC5)nc4)cc23)c(F)cc1[C@@H](C)NC(=O)c1noc(C(C)(C)C)n1` [Example 132, (R)-5-(tert-butyl)-N-(1-(4-(6-(6-(4-((1-(4-(2,4-dioxotetrahydropyrimidin-1(2H)-yl)-3-methylphenyl)piperidin-4-yl)methyl)piperazin-1-yl)pyridin-3-yl)-7H-pyrrolo[2,3-d]pyrimidin-4-yl)-5-fluoro-2-methylphenyl)ethyl)-1,2,4-oxadiazole-3-carboxamide] registered a DC50 at BTK of 0.79 nM. For the same molecule, in the assay with HEK-293 cells, the half-inhibitory concentration (IC50) is > 10 µM.
Taken in the same sequence, the figures for `Cc1cc(-c2ncnc3[nH]c(-c4ccc(N5CCN(CC6CCN(c7ccc(N8CCC(=O)NC8=O)cc7)CC6)CC5)cn4)cc23)ccc1[C@@H](C)NC(=O)c1noc(C(C)(C)C)n1` [Example 133, (R)-5-(tert-butyl)-N-(1-(4-(6-(5-(4-((1-(4-(2,4-dioxotetrahydropyrimidin-1(2H)-yl)phenyl)piperidin-4-yl)methyl)piperazin-1-yl)pyridin-2-yl)-7H-pyrrolo[2,3-d]pyrimidin-4-yl)-2-methylphenyl)ethyl)-1,2,4-oxadiazole-3-carboxamide] were 0.8 nM and > 10 µM.
Taken in the same sequence, the figures for `Cc1cc(-c2ncnc3[nH]c(-c4ccc(N5CCN(CC6CCN(c7ccc(N8CCC(=O)NC8=O)cc7)CC6)CC5)cn4)cc23)c(F)cc1[C@@H](C)NC(=O)c1noc(C(C)(C)C)n1` [Example 134, (R)-5-(tert-butyl)-N-(1-(4-(6-(5-(4-((1-(4-(2,4-dioxotetrahydropyrimidin-1(2H)-yl)phenyl)piperidin-4-yl)methyl)piperazin-1-yl)pyridin-2-yl)-7H-pyrrolo[2,3-d]pyrimidin-4-yl)-5-fluoro-2-methylphenyl)ethyl)-1,2,4-oxadiazole-3-carboxamide] were 0.54 nM and > 10 µM.
Take `C[C@@H](NC(=O)c1noc(C(C)(C)C)n1)c1ccc(-c2ncnc3[nH]c(-c4ccc(N5CCN(CC6CCN(c7ccc(N8CCC(=O)NC8=O)cc7)CC6)CC5)cn4)cc23)cc1CO` [Example 136, (R)-5-(tert-butyl)-N-(1-(4-(6-(5-(4-((1-(4-(2,4-dioxotetrahydropyrimidin-1(2H)-yl)phenyl)piperidin-4-yl)methyl)piperazin-1-yl)pyridin-2-yl)-7H-pyrrolo[2,3-d]pyrimidin-4-yl)-2-(hydroxymethyl)phenyl)ethyl)-1,2,4-oxadiazole-3-carboxamide]: on BTK, half-maximal degradation (DC50) was put at 0.17 nM. Besides, the IC50 with HEK-293 cells is > 10 µM.
The corresponding values for `Cc1cc(N2CCC(CN3CCN(c4ccc(-c5cc6c(-c7ccc([C@@H](C)NC(=O)c8noc(C(C)(C)C)n8)c(CO)c7)ncnc6[nH]5)nc4)CC3)CC2)ccc1N1CCC(=O)NC1=O` [Example 137, (R)-5-(tert-butyl)-N-(1-(4-(6-(5-(4-((1-(4-(2,4-dioxotetrahydropyrimidin-1(2H)-yl)-3-methylphenyl)piperidin-4-yl)methyl)piperazin-1-yl)pyridin-2-yl)-7H-pyrrolo[2,3-d]pyrimidin-4-yl)-2-(hydroxymethyl)phenyl)ethyl)-1,2,4-oxadiazole-3-carboxamide] are 0.23 nM and > 10 µM.
